Reference: patent US20230233584A1, “EXTENDED RELEASE 5-HT RECEPTOR AGONISTS FOR NEUROLOGICAL CONDITIONS” (Diamond Therapeutics Inc., priority 2020, published 2023)

Tested on: Long Evans rats
Assay: Progressive ratio (PR) test, Study B
Assay type: in vivo
Conditions: 0.025 mg/kg, rats
Experimental: General: Experiments were conducted to test psilocybin doses in the range of 0.01-0.2 mg/kg psilocybin administered S.C. across progressive ratio (PR) and 5-choice serial reaction time task (5CSRTT) to examine the effect of psilocybin on endophenotypes of motivation and attention. In each study, a population of out-bred Long Evans rats was first tested as a group for response to the PR and 5CSRTT. Each group was then divided into subgroups by tertiles according to performance, and then exposed to various dose levels immediately prior to re-testing at various psilocybin dose levels.
The PR test is used to answer how willing the test subject is to work for food (i.e. test of motivation). A single 45 mg food pellet (i.e. reinforcer) is made available to the test animal based on lever press response. To obtain each successive pellet, the animal must make increasingly more lever presses. Typically, a progression of 2, 4, 6, 9, 12, 15, 20, 25, 32, 40, 50, 62, 77, 95, 118, etc. is used, derived from the equation:
ratio=[5×e^(0.2×reinforcer #)−5]
At some point, the animal gives up as the motor demands to obtain a single pellet are not deemed worthwhile (i.e. animal reaches “break point” defined as animal's failure to earn a food pellet in 20 minutes).
Study B: Based on Study 1 outcome, a follow-up PR study was conducted utilizing a larger cohort size (72 rats total), and incorporating a lower dose of psilocybin (0.025 mg/kg SC) (FIG. 2C and FIG. 2D). […] Separation of rats based on the lowest average break point recorded over the 7 days prior to testing identified a “low responder” subgroup of N=24 rats. […] There was no treatment effect on session duration (F3,69=2.4; P=0.07, NS), although there was trend for this to be increased at the 0.1 mg/kg dose (Veh: 15.1+2.0 min; Psilo 0.1 mg/kg: 18.7+2.5 min).

CCN(CC)C(=O)[C@@H]1C=C2c3cccc4[nH]cc(c34)C[C@H]2N(C)C1 [LSD, D-lysergic acid diethylamide]
effect in PR test at lowest dose tested: no significant effect
